{"source": "paper PMC9094630", "about": "“Epidemiological Impact of GII.17 Human Noroviruses Associated With Attachment to Enterocytes” (Frontiers in Microbiology, 2022)", "target": "T1, GII.17 Kawasaki 308 variant VLP (E12905) (Norovirus GII.17, UniProt A0A0S2ZZA3)", "T1 construct": "gene VP1", "settings": "ligand as BSA conjugate (about 20 per BSA, multivalent), immobilized; VLP 2 ng/ul; HBS pH 7.4, 25 C; also ELISA (Figure 4A)", "data": [{"smiles": "CC(=O)N[C@H]1[C@H](O[C@H]2[C@@H](O)[C@@H](CO)O[C@@H](O[C@H]3[C@H](O)[C@@H](O)C(O)O[C@@H]3CO)[C@@H]2O)O[C@H](CO)[C@@H](O)[C@@H]1O[C@@H]1O[C@H](CO)[C@H](O)[C@H](O)[C@H]1O[C@@H]1O[C@@H](C)[C@@H](O)[C@@H](O)[C@@H]1O", "note": "(stereo partly shown) [lacto-N-fucopentaose I]", "values": [{"measurement": "GII.17 variant / Kawasaki 308", "result": 255, "unit": "RU"}]}]}
